Results as given in patent US10526280B2 (University of Pittsburgh—Of the Commonwealth System of …, priority 2014, dated 2020).
Like-named read-outs stand apart in the source and are kept apart here.

Key:
[1] = target: T1, KCNQ2/3 channels (Homo sapiens, UniProt O43525+O43526); assay: KCNQ2/3 currents, voltage clamp of CHO cells transiently expressing heterologous KCNQ2/3 channels; format: cell-based
T1 construct: expressed in transfected cells; host or cells: CHO cells, transient expression
Experimental: Retigabine and SF0034 at KCNQ2/3 channels. […] CHO cells transiently expressing heterologous KCNQ2/3 channels were clamped at −85 mV and KCNQ2/3 currents were measured elicited by 1 s depolarization step from −105 to +15 mV in the increment of 10 mV followed by return step to −70 mV. […] Representative current traces of KCNQ2/3 currents at increasing membrane potentials in absence and presence of 100 nM retigabine (A) and 100 nM SF0034 (C). B, D. Representative curves of normalized G-V (conductance-voltage) relationship of KCNQ2/3 currents at control and at increasing concentration of retigabine (B) and SF0034 (D). E. Summary bar graph representing half activation (V1/2) of KCNQ2/3 currents calculated from normalized G-V Boltzmann curves at control and at increasing concentration of retigabine and SF0034. […] Curves were fitted with a hill equation and EC50 values were calculated. Error bars represent mean±SEM. **p<0.01, ***p<0.001.
CHO cells transiently expressing heterologous KCNQ2/3 channels were clamped at −85 mV and KCNQ2/3 currents were measured elicited by 1 s depolarization step from −105 to +15 mV in the increment of 10 mV followed by return step to −70 mV. […] Curves were fitted with a hill equation and EC50 values were calculated. Error bars represent mean±SEM. *p<0.05, **p<0.01.
CHO cells transiently expressing heterologous KCNQ2/3 and homomeric KCNQ4 and KCNQ5 channels were clamped at −85 mV and KCNQ currents were elicited by 1 s depolarization step from −105 to +15 mV in the increment of 10 mV followed by return step to −70 mV. […] Representative current traces of KCNQ2/3 currents at increasing membrane potentials in absence and presence of 100 nM or 1 μM RL648_81. […] Representative curves of normalized G-V relationship of KCNQ2/3 currents at control and at increasing concentration of RL648_81. […] Summary bar graph representing half activation (V1/2) of KCNQ2/3 currents calculated from normalized G-V Boltzmann curves at control and at increasing concentration of RL648_81 A4. […] Curves were fitted with a hill equation and EC50 values were calculated. […] D. Summary bar graphs representing EC50 values of second generation compounds tested at KCNQ2/3 channels in comparison with SF0034.

[2] = target: T2, KCNQ4 channels (Homo sapiens, UniProt P56696); assay: KCNQ4 currents, voltage clamp of CHO cells transiently expressing homomeric KCNQ4 channels; format: cell-based; details: 100 nM and 1 μM
T2 construct: expressed in transfected cells; host or cells: CHO cells, transient expression
Experimental: (§1) FIG. 7. […] CHO cells transiently expressing homomeric KCNQ4 or KCNQ5 channels were clamped at −85 mV and KCNQ currents were measured elicited by 1 s depolarization step from −105 to +15 mV in the increment of 10 mV followed by return step to −70 mV. […] B1-2. […] C1-2. […] E1-2. […] F1-2. […] H1-2. […] I1-2.
(§2) FIG. 9. […] CHO cells transiently expressing heterologous KCNQ2/3 and homomeric KCNQ4 and KCNQ5 channels were clamped at −85 mV and KCNQ currents were elicited by 1 s depolarization step from −105 to +15 mV in the increment of 10 mV followed by return step to −70 mV. A1. […] A2. […] A3. […] Curves were fitted with a hill equation and EC50 values were calculated. B1.

[3] = target: T3, KCNQ5 channels (Homo sapiens, UniProt Q9NR82); assay: KCNQ5 currents, voltage clamp of CHO cells transiently expressing homomeric KCNQ5 channels; format: cell-based; details: 100 nM and 1 μM
T3 construct: expressed in transfected cells; host or cells: CHO cells, transient expression
Experimental: as §1, §2

[4] = hydrochloride salt; cited from earlier work
[5] = CHO cells, 100 nM-30 μM, Hill fit, mean±SEM, read-out: EC50 of half activation shift (ΔV1/2) of KCNQ2/3 currents

T1 sequence (O43526 whole entry): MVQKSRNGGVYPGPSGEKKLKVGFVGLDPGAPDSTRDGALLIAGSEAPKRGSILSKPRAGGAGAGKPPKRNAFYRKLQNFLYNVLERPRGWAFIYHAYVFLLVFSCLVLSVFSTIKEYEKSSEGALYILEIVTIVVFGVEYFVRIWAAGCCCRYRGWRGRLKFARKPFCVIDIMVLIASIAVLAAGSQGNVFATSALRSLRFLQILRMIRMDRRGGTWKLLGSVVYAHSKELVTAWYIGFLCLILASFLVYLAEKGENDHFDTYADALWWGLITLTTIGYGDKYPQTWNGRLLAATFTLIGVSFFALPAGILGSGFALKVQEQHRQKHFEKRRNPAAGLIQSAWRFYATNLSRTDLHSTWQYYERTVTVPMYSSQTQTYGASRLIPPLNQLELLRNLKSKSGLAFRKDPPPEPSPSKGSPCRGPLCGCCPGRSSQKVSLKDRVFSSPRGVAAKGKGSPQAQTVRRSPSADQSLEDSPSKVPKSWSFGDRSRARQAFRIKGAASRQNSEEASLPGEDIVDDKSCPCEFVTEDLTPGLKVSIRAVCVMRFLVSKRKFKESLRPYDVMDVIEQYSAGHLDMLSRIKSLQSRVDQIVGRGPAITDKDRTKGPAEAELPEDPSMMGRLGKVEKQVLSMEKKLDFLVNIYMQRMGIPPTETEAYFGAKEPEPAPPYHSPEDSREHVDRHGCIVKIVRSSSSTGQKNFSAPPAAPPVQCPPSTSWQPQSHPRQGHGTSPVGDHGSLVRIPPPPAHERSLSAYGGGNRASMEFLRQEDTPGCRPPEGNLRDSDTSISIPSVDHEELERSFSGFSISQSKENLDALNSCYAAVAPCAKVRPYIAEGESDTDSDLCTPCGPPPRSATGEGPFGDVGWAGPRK
T1 sequence (O43525 whole entry): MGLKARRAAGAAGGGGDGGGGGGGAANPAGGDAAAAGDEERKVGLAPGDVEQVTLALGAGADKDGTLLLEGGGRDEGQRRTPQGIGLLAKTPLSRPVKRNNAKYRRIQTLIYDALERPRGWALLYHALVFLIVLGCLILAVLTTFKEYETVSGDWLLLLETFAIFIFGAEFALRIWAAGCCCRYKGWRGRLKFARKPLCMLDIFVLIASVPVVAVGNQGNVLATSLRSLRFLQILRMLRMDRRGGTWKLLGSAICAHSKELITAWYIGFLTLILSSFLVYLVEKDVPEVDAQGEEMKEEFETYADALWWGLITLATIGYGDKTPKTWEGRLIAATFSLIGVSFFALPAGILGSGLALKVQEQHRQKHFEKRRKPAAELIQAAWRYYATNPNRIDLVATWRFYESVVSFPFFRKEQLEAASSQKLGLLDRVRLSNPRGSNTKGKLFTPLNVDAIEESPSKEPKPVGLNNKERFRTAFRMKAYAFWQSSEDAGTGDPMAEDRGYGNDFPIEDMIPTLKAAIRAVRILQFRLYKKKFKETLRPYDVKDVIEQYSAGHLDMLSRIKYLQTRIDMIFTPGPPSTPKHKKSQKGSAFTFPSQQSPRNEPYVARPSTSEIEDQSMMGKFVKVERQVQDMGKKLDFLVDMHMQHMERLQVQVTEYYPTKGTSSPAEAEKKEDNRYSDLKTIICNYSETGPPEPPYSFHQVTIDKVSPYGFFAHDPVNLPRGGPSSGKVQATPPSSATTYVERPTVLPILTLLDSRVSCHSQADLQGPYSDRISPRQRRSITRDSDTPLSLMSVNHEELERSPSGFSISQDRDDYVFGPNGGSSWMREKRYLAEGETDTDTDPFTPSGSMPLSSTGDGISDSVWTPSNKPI

## CCOC(=O)Nc1ccc(NCc2ccc(C(F)(F)F)cc2)cc1N
[1]
  EC50: 910 ± 80 nM

## CCOC(=O)Nc1ccc(NCc2cccc(C(F)(F)F)c2)cc1N [NR561_50, N-[2-Amino-4-({[3-(trifluoromethyl)phenyl]methyl}amino)phenyl]ethoxycarboxamide]
[2]
  activation of KCNQ4 channel currents: does not activate KCNQ4 and KCNQ5 channel currents significantly
[3]
  activation of KCNQ5 channel currents: does not activate KCNQ4 and KCNQ5 channel currents significantly
[1]; [5]
  EC50: 740 ± 70 nM

## CC(C)OC(=O)Nc1ccc(NCc2ccc(F)cc2)cc1N [NR561_62, N-(2-Amino-4-{[(4-fluorophenyl)methyl]amino}phenyl)(methylethoxy)carboxamide]
[1]; CHO cells
  potency in activating KCNQ2/3 channel currents relative to SF0034 (times lower potency): 2-3 times
[1]; [5]
  EC50: 1480 ± 180 nM

## CCOC(=O)Nc1ccc(NCc2cccc(C(F)(F)F)c2)c(F)c1N [RL648_73, Ethyl (2-amino-3-fluoro-4-((3-(trifluoromethyl)benzyl)amino)phenyl)carbamate]
[1]; CHO cells
  potency in activating KCNQ2/3 channel currents relative to SF0034 (times more potent): 2 times

## CCOC(=O)Nc1ccc(NCc2ccc(C(F)(F)F)cc2)c(F)c1N [RL648_81, Ethyl (2-amino-3-fluoro-4-((4-(trifluoromethyl)benzyl)amino)phenyl)carbamate]
[2]
  activation of KCNQ4 channel currents: does not potentiate KCNQ4 and KCNQ5 channel currents significantly
[3]
  activation of KCNQ5 channel currents: does not potentiate KCNQ4 and KCNQ5 channel currents significantly
[1]; CHO cells
  potency in activating KCNQ2/3 channel currents relative to SF0034 (times more potent): three times more potent than SF0034
[1]; [5]
  EC50: 190 ± 20 nM

## CCOC(=O)Nc1ccc(NCc2ccc(F)cc2)c(F)c1N [SF0034, reference compound]
[1]; 100 nM
  shift of half activation (V1/2) of KCNQ2/3 currents from control: significantly shift the V1/2
[1]; CHO cells
  potency in activating KCNQ2/3 channel currents relative to retigabine (times more potent): five-times more potent than retigabine
[1]; [5]
  EC50: 600 ± 60 nM

## CCOC(=O)Nc1ccc(NCc2ccc(F)cc2)cc1N [retigabine, reference compound]
[1]
  EC50: 3300 ± 800 nM
[4]
  solubility in aqueous solution: only sparingly soluble

## Isopropyl (2-amino-3-fluoro-4-((4-fluorobenzyl)amino)phenyl)carbamate [RL648_86]
[1]; CHO cells
  potency in activating KCNQ2/3 channel currents relative to SF0034 (times more potent): 2 times
